The supplement of paper PMC5908809

Assays:
[1] = test system: normal NK cells expanded with K562-aAPC; test: percent inhibition of viability; higher = more inhibition; conditions: 72 h, IL-2 2.5 ng/mL
Experimental: (§1)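 Drug sensitivity and resistance testing on K562-aAPC-expanded normal NK cells: 5 concentrations (10-fold steps over a 10,000-fold range), 72 h at 37 °C, viability by CellTiter-Glo normalised to DMSO and benzethonium chloride controls; DSS from the fitted curve.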

DERL-7 (IL-2 2.5 ng/mL) [2] = test: as above; conditions: 72 h
IMC-1 (IL-2 20 ng/mL) [3] = test: as above; conditions: 72 h
KAI3 (IL-2 2.5 ng/mL) [4] = test: as above; conditions: 72 h
KHYG-1 (IL-2 2.5 ng/mL) [5] = test: as above; conditions: 72 h
NK-92 (IL-2 2.5 ng/mL) [6] = test: as above; conditions: 72 h
NK-YS (IL-2 2.5 ng/mL) [7] = test: as above; conditions: 72 h
NKL (IL-2 2.5 ng/mL) [8] = test: as above; conditions: 72 h
SNK-6 (IL-2 2.5 ng/mL) [9] = test: as above; conditions: 72 h
YT (IL-2 2.5 ng/mL) [10] = test: as above; conditions: 72 h
[11] = test system: normal primary NK cells, pool 1 (3 donors) (IL-2 2.5 ng/mL); test: as above; conditions: 72 h
[12] = test system: normal primary NK cells, pool 1 (3 donors), resting (IL-2 0 ng/mL); test: as above; conditions: 72 h
[13] = test system: normal primary NK cells, pool 2 (3 donors) (IL-2 2.5 ng/mL); test: as above; conditions: 72 h
[14] = test system: normal primary NK cells, pool 3 (3 donors) (IL-2 2.5 ng/mL); test: as above; conditions: 72 h
[15] = test system: normal NK cells expanded with K562-aAPC; test: drug sensitivity score (DSS) (DSS units); higher = more sensitive; extreme values may be limits of the assay; conditions: 72 h; IL-2 2.5 ng/mL
Experimental: as §1

DERL-7 (IL-2 2.5 ng/mL) [16] = test: as above; conditions: 72 h
IMC-1 (IL-2 20 ng/mL) [17] = test: as above; conditions: 72 h
KAI3 (IL-2 2.5 ng/mL) [18] = test: as above; conditions: 72 h
KHYG-1 (IL-2 2.5 ng/mL) [19] = test: as above; conditions: 72 h
NK-92 (IL-2 2.5 ng/mL) [20] = test: as above; conditions: 72 h
NK-YS (IL-2 2.5 ng/mL) [21] = test: as above; conditions: 72 h
NKL (IL-2 2.5 ng/mL) [22] = test: as above; conditions: 72 h
SNK-6 (IL-2 2.5 ng/mL) [23] = test: as above; conditions: 72 h
YT (IL-2 2.5 ng/mL) [24] = test: as above; conditions: 72 h
[25] = test system: normal primary NK cells, pool 1 (3 donors) (IL-2 2.5 ng/mL); test: as above; conditions: 72 h
[26] = test system: normal primary NK cells, pool 1 (3 donors), resting (IL-2 0 ng/mL); test: as above; conditions: 72 h
[27] = test system: normal primary NK cells, pool 2 (3 donors) (IL-2 2.5 ng/mL); test: as above; conditions: 72 h
[28] = test system: normal primary NK cells, pool 3 (3 donors) (IL-2 2.5 ng/mL); test: as above; conditions: 72 h

CC1(C)CCC(c2ccc(Cl)cc2)=C(CN2CCN(c3ccc(C(=O)NS(=O)(=O)c4ccc(N[C@H](CCN5CCOCC5)CSc5ccccc5)c(S(=O)(=O)C(F)(F)F)c4)cc3)CC2)C1 [Navitoclax] (max concentration tested 10000 nM)
percent inhibition of viability [%]
Conditions | 1 nM | 10 nM | 100 nM | 1000 nM | 10000 nM
DERL-7 (IL-2 2.5 ng/mL) [2] | 2 | 1.88 | 47.8 | 93 | 100
IMC-1 (IL-2 20 ng/mL) [3] | -6.88 | -0.75 | 19.6 | 38.7 | 79.4
KAI3 (IL-2 2.5 ng/mL) [4] | 19.6 | 80.7 | 102 | 104 | 97.4
KHYG-1 (IL-2 2.5 ng/mL) [5] | -3.19 | -1.54 | 72.7 | 102 | 96.3
NK-92 (IL-2 2.5 ng/mL) [6] | -0.38 | -1.7 | 27 | 83.7 | 95.2
NK-YS (IL-2 2.5 ng/mL) [7] | 0.62 | 12 | 56.3 | 99.3 | 96.6
NKL (IL-2 2.5 ng/mL) [8] | -5.66 | 12.4 | 83.2 | 101 | 97.8
SNK-6 (IL-2 2.5 ng/mL) [9] | 16.9 | 69.7 | 99 | 99.5 | 98.8
YT (IL-2 2.5 ng/mL) [10] | 2.71 | 25.2 | 69.4 | 77.4 | 87.6
[1] | -0.31 | -4.48 | 10.3 | 55 | 77
[11] | -16.8 | -9.66 | 60 | 94 | 99.9
[12] | 2.54 | 48 | 98.3 | 100 | 99.9
[13] | -16.4 | 3.46 | 56.9 | 95.9 | 99
[14] | -14.4 | -12.2 | 24.6 | 87.2 | 95.9

Conditions | drug sensitivity score
DERL-7 (IL-2 2.5 ng/mL) [16] | 23
IMC-1 (IL-2 20 ng/mL) [17] | 9.91
KAI3 (IL-2 2.5 ng/mL) [18] | 42.1
KHYG-1 (IL-2 2.5 ng/mL) [19] | 26.3
NK-92 (IL-2 2.5 ng/mL) [20] | 18.6
NK-YS (IL-2 2.5 ng/mL) [21] | 24.8
NKL (IL-2 2.5 ng/mL) [22] | 29.4
SNK-6 (IL-2 2.5 ng/mL) [23] | 39.8
YT (IL-2 2.5 ng/mL) [24] | 26.4
[15] | 11.7
[25] | 25.1
[26] | 36.1
[27] | 24.6
[28] | 19.2

CCCc1cc(C)[nH]c(=O)c1CNC(=O)c1cc(-c2ccnc(N3CCN(C)CC3)c2)cc2c1cnn2C(C)C [GSK343] (max concentration tested 10000 nM)
percent inhibition of viability [%]
Conditions | 1 nM | 10 nM | 100 nM | 1000 nM | 10000 nM
DERL-7 (IL-2 2.5 ng/mL) [2] | 3.94 | -4.82 | 3.13 | 8.76 | 96.6
IMC-1 (IL-2 20 ng/mL) [3] | -6.79 | -3.69 | -6.5 | -9.82 | 99.4
KAI3 (IL-2 2.5 ng/mL) [4] | -6.07 | -1.68 | -2.65 | 8.26 | 99.1
KHYG-1 (IL-2 2.5 ng/mL) [5] | 0.04 | 1.72 | -6.82 | 3.86 | 99.8
NK-92 (IL-2 2.5 ng/mL) [6] | -15.4 | -9.54 | -9.12 | -0.4 | 98.1
NK-YS (IL-2 2.5 ng/mL) [7] | -5.74 | -3.63 | -4.33 | 4.65 | 101
NKL (IL-2 2.5 ng/mL) [8] | -9.45 | -14.8 | -10.7 | -3.16 | 99.2
SNK-6 (IL-2 2.5 ng/mL) [9] | -12.3 | 5.94 | -7.63 | -6.91 | 99.4
YT (IL-2 2.5 ng/mL) [10] | -0.53 | -1.05 | -6.88 | 3.69 | 99
[1] | -1.65 | -5.79 | -7.46 | -5.85 | 99.2
[11] | 2.11 | -6.04 | -3.32 | 7.91 | 93.1
[12] | -0.38 | -4.24 | -14.9 | 10.5 | 92.6
[13] | -8.31 | -4.46 | -6.41 | -0.99 | -0.1
[14] | -4.17 | -3.24 | -2 | -6.83 | 59.2

Conditions | drug sensitivity score
DERL-7 (IL-2 2.5 ng/mL) [16] | 6.76
IMC-1 (IL-2 20 ng/mL) [17] | 4.86
KAI3 (IL-2 2.5 ng/mL) [18] | 6.8
KHYG-1 (IL-2 2.5 ng/mL) [19] | 6.07
NK-92 (IL-2 2.5 ng/mL) [20] | 5.45
NK-YS (IL-2 2.5 ng/mL) [21] | 6.26
NKL (IL-2 2.5 ng/mL) [22] | 5.27
SNK-6 (IL-2 2.5 ng/mL) [23] | 5.02
YT (IL-2 2.5 ng/mL) [24] | 6
[15] | 5.07
[25] | 6.41
[26] | 6.86
[27] | 0
[28] | 2.74
